The values that follow are results of earlier work, collected in US10350188B2, “Use of Neu1 sialidase inhibitors in the treatment of cancer” (priority 2011, dated 2019).

Data set [1] concerns the target T1, sialidase activity associated with TLR ligand treated live BMC-2 macrophage cells (Mus musculus, UniProt O35657).
T1 construct: endogenous in cells; host or cells: BMC-2 macrophage cells
Conditions: 1-2 mM, compared to LPS positive control; cited from earlier work.

Data set [2] deals with Neu1 sialidase. Conditions: NGF treated live TrkA-expressing cells; cited from earlier work.
A further data set addresses T2, human Neu3 sialidase (Homo sapiens, UniProt Q9UQ49).
T2 sequence (Q9UQ49 1-428): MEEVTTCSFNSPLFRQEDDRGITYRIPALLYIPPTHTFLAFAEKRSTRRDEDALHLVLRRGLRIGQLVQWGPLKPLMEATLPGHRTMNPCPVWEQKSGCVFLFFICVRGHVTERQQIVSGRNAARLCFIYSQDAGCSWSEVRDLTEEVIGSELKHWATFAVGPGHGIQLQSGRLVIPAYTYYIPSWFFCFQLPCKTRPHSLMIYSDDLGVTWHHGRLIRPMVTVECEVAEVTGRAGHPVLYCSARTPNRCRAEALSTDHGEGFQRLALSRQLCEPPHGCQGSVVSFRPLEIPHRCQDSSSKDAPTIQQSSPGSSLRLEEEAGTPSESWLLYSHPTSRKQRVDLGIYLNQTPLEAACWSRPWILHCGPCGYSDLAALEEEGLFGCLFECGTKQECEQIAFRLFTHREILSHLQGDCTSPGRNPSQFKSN
Particulars: in the micromolar range; cited from earlier work.

Data set [3] has as its target T3, Neu1 sialidase (Homo sapiens, UniProt Q99519).
T3 construct: using lysates from mature dendritic cells; host or cells: lysates from mature dendritic cells
Particulars: 2 mM; lysates from mature dendritic cells; cited from earlier work.

The test system of another data set is Neu3 sialidase. Particulars: 2 mM; lysates from mature dendritic cells; cited from earlier work.
For the next data set, the system named is TLR4/MD2. Conditions: HEK293 cells stably transfected with TLR4/MD2; cited from earlier work.

In the case of `CC(=O)N[C@H]1[C@H]([C@H](O)[C@H](O)CO)OC(C(=O)O)=C[C@@H]1N=C(N)N` [zanamivir, 4-guanidino-Neu5Ac2en], the “Inhibition of LPS induced sialidase activity (in words)” value in data set [1] was “limited effect”. The “Inhibition of Neu1 sialidase activity (in words)” value is on record as “limited inhibitory effect” with Neu1 sialidase [2] and “completely inhibited” on Neu1 sialidase [3]. Besides, at human Neu3 sialidase, the “Inhibition of human Neu3 sialidase (in words)” value is listed as “significantly inhibited”. Also, the “Inhibition of Neu3 sialidase activity (in words)” value with Neu3 sialidase is “completely inhibited”.
As for “galectin-1: α-2,3-sialyl specific galectin-1”, in the data set on TLR4/MD2, the “Inhibition of TLR ligand-induced NFκB responses (in words)” value is reported as “significantly inhibited”.
